Patent publication US20190269705A1, “METHODS AND MATERIALS FOR TREATING GRAFT VERSUS HOST DISEASE” (Regents of the University of Minnesota, priority 2017, published 2019)

Key:
Format in all cases: cell-based, mouse
Th17 cells = experiment: ATAC-Seq chromatin accessibility, Th17; conditions: Th17, 500 nM CB839, day 5
Experimental: ATAC-Seq: Crude nuclei pellets were isolated as described elsewhere (see, e.g., Buenrostro et al., 2013 Nat Meth. 10(12):1213-1218) with modifications. Briefly, naïve CD4 T cells were skewed to Th1 and Th17 subsets in vitro with vehicle or in the presence of 500 nM CB839. At Day 5, T cells were re-isolated for CD4+ cells using Miltenyi CD4+ negative selection kit (Cat #: 130-104-454). 1×10^5 cells were removed for nuclei extraction in ATAC-Seq lysing buffer. Cells were exposed to Tn5+ adaptor proteins from Nextera DNA for 30 min at 37° C. and immediately placed on ice. Transposed eluate was amplified via PCR using Nextera DNA preparation kit (Illumina, Cat #: FC-121-1030), NEBNext High-fidelity 2× PCR mix (New England Labs, Cat #: M0541), and multiplexed (Illumina, Cat #: FC-121-1011). Samples were purified using Zymo DNA cleanup kit (Cat #: D4011). QC of samples was run on bioanalyzer before being sent for sequencing. RNA-Seq: Th1 and Th17 cells skewed with or without CB839 were isolated as previously described and total RNA extracted (Qiagen RNEasy Mini kit, Cat #: 74104). RNA was sent to VANTAGE core at Vanderbilt University and sequenced on HiSeq 2500. n=3 for each sample was analyzed. Samples were analyzed using the R program DESeq2. GSEA was performed using MSigDB. […]

stimulated CD4+ T cells = experiment: 13C-glucose tracing of stimulated CD4 T cells (LC-HRMS); conditions: 1 μM CB839, 13C-glucose, 24 hours
Experimental: ^13C-Glucose Activation: CD4 cells were activated on 5 μg/mL αCD3/CD28 for 3 days. At day 3, cells were pooled, washed 3× in PBS, and re-stimulated in presence of 1 μM CB839 or Vehicle (DMSO) and 11 mM ^13C glucose (Cambridge Isotope Labs, Cat #: CLM-1396-1). Cells were incubated for 24 hours at 37° C., then scraped and combined in triplicate. Cells were rinsed with 0.9% saline and metabolites were extracted in methanol. Metabolites measured by LC-High-Resolution Mass Spectrometer (LC-HRMS) using a Q-exactive machine. The time-dependent glucose labeling pattern was modeled as with the following equation: […]
^13C Tracing. To measure 13C-Glucose tracing in T cell activation, CD4 cells were stimulated on 5 μg/mL anti-CD3/CD28 for 3 days. At day 3, cells were pooled, washed 3× in PBS, and re-stimulated in presence of 1 uM CB839 or Vehicle (DMSO) and 11 mM 13C glucose (Cambridge Isotope Labs, Cat #: CLM-1396-1). Cells were incubated for 24 hours at 37 °C, then scraped and combined in triplicate. Cells were rinsed with 0.9% saline and metabolites were extracted in methanol. Metabolites measured by LC High-Resolution Mass Spectrometer (LC-HRMS) using a Q-Exactive machine as previously described(Liberti et al., 2017). The time-dependent glucose labeling pattern was modeled as with the following equation: […]

naïve CD4+ T cells = experiment: Extracellular Acidification Rate on instantaneous T cell activation (Seahorse); conditions: αCD3/CD28 injection in the presence of vehicle or CB839
Experimental: Experiments were carried out on Agilent Seahorse XF96 bioanalyzer (Agilent). Briefly, wild type CD4+ cells were isolated as previous and activated for 3 days on CD3/CD28 as previously described, or skewed to Th1 and Th17 subsets as described above. T cells were spun onto XF96 Cell-Tak (BD Bioscience, Cat #: 354240) coated plates and rested in Seahorse XF RPMI 1640 media supplemented with glutamine, sodium pyruvate, and glucose. For immediate metabolic response, CB839 and UK5099 were injected separately or in combination, and OCR and ECAR measured.
Experiments were carried out on Agilent Seahorse XF96 bioanalyzer (Agilent). Briefly, wild type CD4+ cells were isolated as previous and activated for 3 days on αCD3/CD28 coated plates as previously described, or skewed to Th1 and Th17 subsets as described above. T cells were isolated and spun onto XF96 Cell-Tak (BD Bioscience, Cat #: 354240) coated plates and rested in Seahorse XF RPMI 1640 media supplemented with glutamine, sodium pyruvate, and glucose. For immediate metabolic response, 1 μM CB839 and 5 μM UK5099 (Cat #: PZ0160-5MG) were injected separately or in combination, and OCR and ECAR measured. For activation response, 1 uM CB839 was injected into IL-7 maintained naïve CD4+ T cells in seahorse medium and allowed to incubate for 20 minutes, followed by soluble αCD3/CD28 injection.

SMILES: O=C(Cc1cccc(OC(F)(F)F)c1)Nc1ccc(CCCCc2nnc(NC(=O)Cc3ccccn3)s2)nn1 [CB839]
- genes with regions of altered chromatin accessibility (Th17 cells): more genes with regions of reduced accessibility
- N-carbamoyl-aspartate (stimulated CD4+ T cells): decreased
- TCA intermediates fractional labeling with glucose-derived 13C (stimulated CD4+ T cells): increased fractional labeling
- TCA intermediates overall abundance (stimulated CD4+ T cells): reduced in overall abundance
- aspartate levels (stimulated CD4+ T cells): decreased significantly
- glucose-derived 13C in glutamate and aspartate (stimulated CD4+ T cells): increased in both glutamate and aspartate
- glutamate (stimulated CD4+ T cells): decreased glutamate
- glycine abundance (stimulated CD4+ T cells): unchanged
- glycolytic intermediates abundance (stimulated CD4+ T cells): more abundant
- intracellular glutamine (stimulated CD4+ T cells): increased intracellular glutamine
- lactate levels and 13C-labeling (stimulated CD4+ T cells): unchanged
- pyruvate abundance (stimulated CD4+ T cells): decreased
- serine and alanine abundance (stimulated CD4+ T cells): also decreased
- early events in T cell activation (ECAR) (naïve CD4+ T cells): did not to be affected
